From patent publication US11957696B2 (Propella Therapeutics, Inc., priority 2021, dated 2024)
Like-named read-outs stand apart in the source and are kept apart here.

Experiments:
CYP17A1 = target: T1, CYP17A1 (Macaca fascicularis, UniProt Q2XVA1); assay: PD (progesterone, cortisol, dihydrotestosterone, testosterone levels) in chemically castrated monkeys; format: in vivo, cynomolgus monkeys
T1 construct: endogenous in cells; host or cells: live male cynomolgus monkeys (in vivo; steroidogenic tissues)
T1 sequence (Q2XVA1 1-508): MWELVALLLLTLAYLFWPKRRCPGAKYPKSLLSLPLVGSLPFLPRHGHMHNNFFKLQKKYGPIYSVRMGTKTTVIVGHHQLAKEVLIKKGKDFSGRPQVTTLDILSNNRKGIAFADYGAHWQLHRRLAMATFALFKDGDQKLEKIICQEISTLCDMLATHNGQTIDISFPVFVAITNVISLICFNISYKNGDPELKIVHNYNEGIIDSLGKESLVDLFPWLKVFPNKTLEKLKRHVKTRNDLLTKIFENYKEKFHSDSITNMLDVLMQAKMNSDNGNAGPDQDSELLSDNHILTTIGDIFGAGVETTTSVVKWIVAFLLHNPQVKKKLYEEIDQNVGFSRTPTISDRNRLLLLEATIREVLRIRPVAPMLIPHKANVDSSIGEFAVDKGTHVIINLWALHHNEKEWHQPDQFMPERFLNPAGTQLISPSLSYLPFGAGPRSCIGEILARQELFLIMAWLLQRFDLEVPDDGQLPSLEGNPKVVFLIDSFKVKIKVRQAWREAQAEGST
Source text: The effects of administering dexamethasone and methylprednisolone acetate according to the schedule of this Example were also shown in FIGS. 5A, 5B, 5C, and 5D.

[1] = cynomolgus monkey, in vivo
Description: Test system/animals: gonadally intact, sexually mature, male cynomolgus monkeys. Administration of Test Materials: The vehicle control and test article were administered once every 2 weeks for 13 weeks (Days 1, 15, 29, 43, 57, and 71) during the study via intramuscular injection. […] The dose levels were 20, 60, or 200 mg/kg/dose and administered at a dose volume of 0.10, 0.15, and 0.25 mL/kg/site, respectively. The control group received the vehicle control in the same manner as the treated groups at a dose volume of 0.25 mL/kg/site.
The vehicle control and test article formulations were administered via bolus intramuscular injection into the epaxial muscles of the lumbar back. Animals at 0 and 200 mg/kg/dose were dosed in 4 dose sites, animals at 20 mg/kg/dose were dosed in 1 dose site, and animals at 60 mg/kg/dose were dosed in 2 dose sites. The needle (23-gauge, ⅝-inch) was inserted perpendicular to the skin surface. The location of the injection site was documented for each dose. In addition, each injection site was marked with a single large dot at the exact site of needle insertion, for purposes of erythema and swelling evaluation. Each injection site was remarked at least once weekly and prior to necropsy.
Individual doses were based on the most recent body weights. Formulations were warmed at 35° C. (±5° C.) for at least 1 hour prior to dosing.
The following parameters and endpoints were evaluated in this study: mortality, clinical signs, body weights, body weight gains, ophthalmology and electrocardiographic examinations, clinical pathology parameters (hematology, coagulation, clinical chemistry, and urinalysis), LH and ACTH analyses, toxicokinetic parameters, gross necropsy findings, organ weights, and histopathologic examinations. Statistical analyses were performed using Group Pair-wise Comparisons (general ANOVA).

ACTH = ACTH analysis (plasma) in 13-week study; format: in vivo, cynomolgus monkeys
Description: Sample Collection for ACTH Analysis (Plasma): Blood samples (approximately 2.5 mL) were collected from all animals via the femoral vein for determination of the plasma concentrations of ACTH. The animals were fasted prior to blood collection except one deviation.

LH = LH analysis (serum) in 13-week study; format: in vivo, cynomolgus monkeys; parameters: LH: unit not given here
Description: Sample Collection for LH Analysis (Serum): Blood samples (approximately 2.5 mL) were collected from all animals via the femoral vein for determination of the serum concentrations of LH. The animals were fasted prior to blood collection except one deviation.

[2] = Abiraterone plasma exposure from abiraterone decanoate formulations with and without benzyl benzoate; format: in vivo; conditions: corn oil 70%, benzyl alcohol 10%, benzyl benzoate 20% compared with corn oil 90%, same dose, monkeys
Source text: In some embodiments, the abiraterone prodrug formulation can comprise a combination of benzyl alcohol and benzyl benzoate as cosolvents. In some embodiments, the benzyl alcohol can be present in an amount of about 0-20% (e.g., 0-15% or 0-10%, such as about 10%) of the solvent, and benzyl benzoate can be present in an amount of about 0-50% (e.g., 0-35% or 0-30%, such as about 20%) of the solvent, wherein the balance of the solvent can be any one or more of the pharmaceutically acceptable oil described herein, such as corn oil, castor oil, sesame oil, peanut oil, cottonseed oil, and/or Miglyol 812, etc.

CCCCCCCCCC(=O)O[C@H]1CC[C@@]2(C)C(=CC[C@@H]3[C@@H]2CC[C@]2(C)C(c4cccnc4)=CC[C@@H]32)C1 [Abiraterone Decanoate, abiraterone decanoate]
PD effects relative to abiraterone plasma concentration (CYP17A1; 10 mg/kg dosing group): prolonged PD effects were observed even after abiraterone plasma concentration dropped below 1 ng/mL | progesterone, cortisol, dihydrotestosterone and testosterone levels (CYP17A1; single dose IM, all three doses): sustained increase of progesterone level and reduction of cortisol, dihydrotestosterone, and testosterone level | duration of CYP17A1 inhibition (CYP17A1; single dose IM, all three doses (10, 30, 100 mg/kg)): ≥ 70 days | adrenal gland changes [1]: minimal to moderate cortical hypertrophy | clinical observations [1]: swelling and/or nodules at the injection sites | findings in the lung [1]: minimal to moderate granulomatous inflammation | ophthalmology findings, qualitative or quantitative ECG parameters [1]: no effect | test article-related changes in the epididymis [1]: mild to severe reduced luminal sperm and/or minimal to mild increased germ cell debris | test article-related changes in the prostate gland [1]: mild to moderate prostate gland atrophy | test article-related changes in the seminal vesicle [1]: minimal to mild seminal vesicle atrophy | test article-related changes in the testes [1]: minimal to moderate germ cell depletion and minimal to mild Leydig cell hypertrophy | test article-related changes in the thymus [1]: minimal to mild increased lymphocytes | test article-related findings in the mammary gland [1]: minimal to mild lobular and/or duct hyperplasia | microscopic findings at terminal necropsy ([1]; 20 mg/kg): test article-related microscopic findings | albumin concentration ([1]; 20 mg/kg/day): minimal decreases | microscopic findings at terminal necropsy ([1]; 60 mg/kg): test article-related microscopic findings | mean corpuscular volume (MCV) and mean corpuscular hemoglobin (MCH) ([1]; 200 mg/kg): minimal decreases | red cell distribution width (RDW) ([1]; 200 mg/kg): minimal increase | highest non-severely toxic dose ([1]; male, 13 weeks): 60 mg/kg/dose | ACTH fold change of treated group mean relative to pretreatment (Day −1) mean (ACTH; 20 mg/kg/dose, Day 8): 1.72× | ACTH fold change of treated group mean relative to pretreatment (Day −1) mean (ACTH; 20 mg/kg/dose, Day 15): 2.63× | ACTH fold change of treated group mean relative to pretreatment (Day −1) mean (ACTH; 20 mg/kg/dose, Day 78): 2.30×* | ACTH fold change of treated group mean relative to pretreatment (Day −1) mean (ACTH; 20 mg/kg/dose, Day 85): 1.89×* | ACTH fold change of treated group mean relative to pretreatment (Day −1) mean (ACTH; 60 mg/kg/dose, Day 8): 2.55×* | ACTH fold change of treated group mean relative to pretreatment (Day −1) mean (ACTH; 60 mg/kg/dose, Day 15): 2.35×* | ACTH fold change of treated group mean relative to pretreatment (Day −1) mean (ACTH; 60 mg/kg/dose, Day 78): 1.33×* | ACTH fold change of treated group mean relative to pretreatment (Day −1) mean (ACTH; 60 mg/kg/dose, Day 85): 1.36×* | ACTH fold change of treated group mean relative to pretreatment (Day −1) mean (ACTH; 200 mg/kg/dose, Day 8): 4.90×* | ACTH fold change of treated group mean relative to pretreatment (Day −1) mean (ACTH; 200 mg/kg/dose, Day 15): 5.14×* | ACTH fold change of treated group mean relative to pretreatment (Day −1) mean (ACTH; 200 mg/kg/dose, Day 78): 4.65×* | ACTH fold change of treated group mean relative to pretreatment (Day −1) mean (ACTH; 200 mg/kg/dose, Day 85): 4.66×* | ACTH concentrations (ACTH; males at ≥20 mg/kg/dose): increases | LH (LH; 20 mg/kg, N 4, Day 8): 1.67 | LH (LH; 20 mg/kg, N 4, Day 15): 1.67 | LH (LH; 20 mg/kg, N 4, Day 78): 5.67 | LH (LH; 20 mg/kg, N 4, Day 85): 3.12 | LH (LH; 60 mg/kg, N 4, Day 8): 2.78 | LH (LH; 60 mg/kg, N 4, Day 15): 2.73 | LH (LH; 60 mg/kg, N 4, Day 78): 7.12 | LH (LH; 60 mg/kg, N 4, Day 85): 7.07 | LH (LH; 200 mg/kg, N 6, Day 8): 1.98 | LH (LH; 200 mg/kg, N 6, Day 15): 2.33 | LH (LH; 200 mg/kg, N 6, Day 78): 5.04 | LH (LH; 200 mg/kg, N 6, Day 85): 5.27 | LH concentrations (LH; following abiraterone decanoate administration): no clear effects | abiraterone plasma exposure [2]: much higher abiraterone plasma exposure
